Results on two compounds are retold here after patent US20090246292A1, “ANTIMICROBIAL FORMULATIONS COMPRISING A QUINONE AND A COPPER SALT” (priority 2006, published 2009).

Each structure is given as a SMILES string. ≈ marks a conversion by molar mass, not a printed value.

A word on the MIC: it is the lowest concentration found to suppress growth. A word on the MBC: it is the smallest concentration meeting the test's criterion for killing.

The subject of assay [1] is Staphylococcus haemolyticus ATCC 29970. The settings on record: triplicate.
Description: The staphylococci were cultured and maintained on Mueller-Hinton Medium (agar and broth) at pH 7.2; cultures were incubated aerobically at 37° C. for 19-20 hours.
This is a standard international method for quantitatively assessing the antimicrobial activity of a compound in a liquid medium. The method used a sterile 96-well microtitre plate, capable of holding about 200 μl of liquid per well. […] The culture media were as described above.
The wells were inoculated with a liquid suspension of freshly grown micro-organism and incubated under the conditions described above. After incubation, the microtitre plate was examined visually (with the aid of a light box) for cloudiness in each well, which would indicate microbial growth. The MIC value was recorded as the lowest concentration of test compound required to inhibit microbial growth, ie, the lowest concentration for which the liquid in the well remained clear.
The subject of assay [2] is panel of different propionibacterium strains. Put plainly: MIC by agar dilution and (S)DDA, whole panel. The settings on record: compound alone; also under supplemented conditions. The format is cell-based, Propionibacterium spp. In general terms: In agar dilution the substance is mixed into plates at graded concentrations.
Description: For (S)DDA experiments 200 μg of each test compound was added per disc. […] MIC experiments were performed in duplicate, DDA experiments as single replicates only. SDDA experiments were conducted in triplicate.
The activity of the salt (MIC by agar dilution and DDA) was also determined against a panel of different propionibacterium strains. Supplemented DDA experiments were also carried out. […] DMSO was used as the diluting solvent. MIC experiments were performed in duplicate and DDA experiments as single replicates only.
Assay [3] relates to panel of different staphylococcal strains. The settings on record: compound alone; also under supplemented conditions.
Description: The activity of the salt was also determined against a panel of different staphylococcal strains, including some with known antibiotic resistance. MIC, MBC and DDA assays were carried out as described above for each of the strains, including determining the effect of the presence of salt and serum.
For DDA experiments 200 μg of the test compound was added per disc. DMSO was used as the diluting solvent. All experiments were performed in triplicate.
In a further assay the test system is P. granulosum PRP-006. Put plainly: Disc diffusion assay (DDA), also supplemented. Conditions: Table 12 series, 200 μg per disc. It counts as cell-based. On the technique in general: Agar diffusion results depend on both activity and mobility in agar.
Assay [4] relates to P. acnes NCTC 737. Put plainly: Disc diffusion assay (DDA), also supplemented. Conditions: single compound, 200 μg per disc.
Assay [5] has as its system P. acnes NCTC 737. Put plainly: Minimum inhibitory concentration (MIC) assay. The format is cell-based, Propionibacterium acnes. Conditions: P. acnes NCTC 737. An excerpt:
(§1) (a) Minimum Inhibitory Concentration (MIC) Assay
(§2) The culture media were as described above.
(§3) The assays included both negative (culture medium with no micro-organisms) and positive (culture medium plus diluting solvent plus micro-organism) controls.

Another assay deals with P. acnes PRP-023. Put plainly: Disc diffusion assay (DDA), also supplemented. The settings on record: Table 12 series, 200 μg per disc. The format is cell-based, Propionibacterium acnes.
Another assay deals with P. acnes PRP-039. Put plainly: Disc diffusion assay (DDA), also supplemented. The format is cell-based, Propionibacterium acnes. Conditions: Table 12 series, 200 μg per disc.
For assay [6], the system named is S. aureus ATCC 29213. Put plainly: Disc diffusion assay (DDA), also supplemented. Conditions: single compound, 200 μg per disc.
The test system of another assay is P. granulosum PRP-005. Put plainly: Disc diffusion assay (DDA), also supplemented. The format is cell-based. The settings on record: Table 12 series, 200 μg per disc.
The next assay relates to P. acnes PRP-101. Put plainly: Disc diffusion assay (DDA), also supplemented. It counts as cell-based, Propionibacterium acnes. The settings on record: Table 12 series, 200 μg per disc.
The subject of another assay is P. granulosum PRP-043. Put plainly: Disc diffusion assay (DDA), also supplemented. The format is cell-based. The settings on record: Table 12 series, 200 μg per disc.
The test system of another assay is P. acnes PRP-026. Put plainly: Disc diffusion assay (DDA), also supplemented. The format is cell-based, Propionibacterium acnes. Conditions: Table 12 series, 200 μg per disc.
Assay [7] relates to S. aureus ATCC 29213. Put plainly: Minimum inhibitory concentration (MIC) assay. The format is cell-based, Staphylococcus aureus. The settings on record: S. aureus ATCC 29213.
Description: as §1, §2, §3

The subject of the next assay is P. acnes PRP-017. Put plainly: Disc diffusion assay (DDA), also supplemented. It counts as cell-based, Propionibacterium acnes. The settings on record: Table 12 series, 200 μg per disc.
Assay [8] relates to S. aureus ATCC 29213. Put plainly: Minimum bactericidal concentration (MBC) assay. The format is cell-based, Staphylococcus aureus. The settings on record: Staphylococcus aureus, ATCC29213; S. aureus ATCC 29213; duplicate; read-out: MBC. On the procedure:
(§4) (b) Minimum Bactericidal Concentration (MBC) Assay
(§5) Following incubation they were examined visually for bacterial growth.

Another assay has as its system P. granulosum PRP-021. Put plainly: Disc diffusion assay (DDA), also supplemented. It counts as cell-based. Conditions: Table 12 series, 200 μg per disc.
The next assay deals with P. granulosum PRP-019. Put plainly: Disc diffusion assay (DDA), also supplemented. The format is cell-based. Conditions: Table 12 series, 200 μg per disc.
The test system of a further assay is P. acnes PRP-008. Put plainly: Disc diffusion assay (DDA), also supplemented. It counts as cell-based, Propionibacterium acnes. The settings on record: Table 12 series, 200 μg per disc.
The subject of another assay is P. granulosum PRP-055. Put plainly: Disc diffusion assay (DDA), also supplemented. The format is cell-based. Conditions: Table 12 series, 200 μg per disc.
A further assay deals with P. acnes PRP-004. Put plainly: Disc diffusion assay (DDA), also supplemented. It counts as cell-based, Propionibacterium acnes. The settings on record: Table 12 series, 200 μg per disc.
The subject of a further assay is P. acnes PRP-046. Put plainly: Disc diffusion assay (DDA), also supplemented. The format is cell-based, Propionibacterium acnes. Conditions: Table 12 series, 200 μg per disc.
The subject of the next assay is P. granulosum NCTC 11865. Put plainly: Disc diffusion assay (DDA), also supplemented. It counts as cell-based. Conditions: Table 12 series, 200 μg per disc.
In a further assay the test system is P. acnes PRP-003. Put plainly: Disc diffusion assay (DDA), also supplemented. Conditions: Table 12 series, 200 μg per disc. The format is cell-based, Propionibacterium acnes.
For a further assay, the system named is P. acnes PRP-002. Put plainly: Disc diffusion assay (DDA), also supplemented. The settings on record: Table 12 series, 200 μg per disc. The format is cell-based, Propionibacterium acnes.
The test system of a further assay is P. acnes PRP-068. Put plainly: Disc diffusion assay (DDA), also supplemented. The format is cell-based, Propionibacterium acnes. The settings on record: Table 12 series, 200 μg per disc.
In the next assay the test system is P. acnes PRP-053. Put plainly: Disc diffusion assay (DDA), also supplemented. The format is cell-based, Propionibacterium acnes. The settings on record: Table 12 series, 200 μg per disc.
A further assay concerns P. acnes PRP-102. Put plainly: Disc diffusion assay (DDA), also supplemented. The format is cell-based, Propionibacterium acnes. Conditions: Table 12 series, 200 μg per disc.
The test system of another assay is P. acnes PRP-007. Put plainly: Disc diffusion assay (DDA), also supplemented. The format is cell-based, Propionibacterium acnes. The settings on record: Table 12 series, 200 μg per disc.
Another assay has as its system P. acnes PRP-010. Put plainly: Disc diffusion assay (DDA), also supplemented. It counts as cell-based, Propionibacterium acnes. Conditions: Table 12 series, 200 μg per disc.
The test system of the next assay is P. granulosum PRP-044. Put plainly: Disc diffusion assay (DDA), also supplemented. The format is cell-based. Conditions: Table 12 series, 200 μg per disc.
Assay [9] concerns P. acnes NCTC 737. Put plainly: Minimum bactericidal concentration (MBC) assay. The format is cell-based, Propionibacterium acnes. Conditions: Cutibacterium acnes, NCTC737; P. acnes NCTC 737; duplicate; read-out: MBC. The method, then: as §4, §5
In another assay the test system is P. acnes PRP-059. Put plainly: Disc diffusion assay (DDA), also supplemented. The format is cell-based, Propionibacterium acnes. The settings on record: Table 12 series, 200 μg per disc.
The mark [10] stands for this setting: zone of inhibition diameter, unsupplemented.
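For SL (S)DDA in this document: paper disc carrying compound placed on inoculated Wilkins-Chalgren Anaerobe agar pH 6.0, with lipid or NaCl supplement where listed, anaerobic 37 °C for 72 h, inhibition zone diameter read.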

Description for P. acnes PRP-002: (§6) The propionibacteria were cultured and maintained on Wilkins-Chalgren Anaerobe Medium (agar and broth) at pH 6.0; all cultures were incubated anaerobically at 37° C. for 72 hours.
(§7) A sterile paper disc was impregnated with a sample of the test compound in a suitable solvent and 30 minutes allowed for the solvents to evaporate (where possible). The disc was then placed on an agar plate onto which the test micro-organism had been inoculated. The plate was then incubated under the conditions described above, following which it was examined visually for signs of bacterial growth. […] The diameter of this zone of “inhibition” was measured using a ProtoCOL™ automated zone sizer (Synbiosis, Cambridge, UK).
(§8) For assays using Propionibacterium spp. strains the supplements used in the examples below were lipid (either Tween™ 80 or triolein, both at 1% v/v) and sodium chloride (100 mM).
Description for P. acnes PRP-003: as §6, §7, §8
Description for P. acnes PRP-004: as §6, §7, §8
Description for P. acnes PRP-007: as §6, §7, §8
Description for P. acnes PRP-008: as §6, §7, §8
Description for P. acnes PRP-010: as §6, §7, §8
Description for P. acnes PRP-023: as §6, §7, §8
Description for P. acnes PRP-026: as §6, §7, §8
Description for P. acnes PRP-053: as §6, §7, §8
Description for P. acnes PRP-059: as §6, §7, §8
Description for P. acnes PRP-068: as §6, §7, §8
Description for P. acnes PRP-101: as §6, §7, §8
Description for P. acnes PRP-102: as §6, §7, §8
Description for P. granulosum NCTC 11865: as §6, §7, §8
Description for P. granulosum PRP-005: as §6, §7, §8
Description for P. granulosum PRP-006: as §6, §7, §8
Description for P. granulosum PRP-019: as §6, §7, §8
Description for P. granulosum PRP-021: as §6, §7, §8
Description for P. granulosum PRP-043: as §6, §7, §8
Description for P. granulosum PRP-044: as §6, §7, §8
Description for P. granulosum PRP-055: as §6, §7, §8

With `Oc1cccc2cccnc12.[Cu+2]` [8-hydroxyquinoline copper (II) salt], the “Cu-8HQ MIC” value in assay [1] turned out to be 7.8 µg/mL. Besides, in assay [2], the “activity against propionibacterium strains tested (in words)” value was “high activity”. Moreover, in assay [3], the “activity against staphylococcal strains (in words)” value is recorded as “high activity”.

As to `CC(C)(C)c1cc(O)ccc1O` [TBHQ, t-butylhydroquinone], the DDA with P. granulosum PRP-006 is reported as 9.93 mm; with P. acnes PRP-023, 11.92 mm; in the assay on P. acnes PRP-039 it was 17.04 mm; in the assay with P. granulosum PRP-005 it was 15.05 mm; in the assay with P. acnes PRP-101, 14.01 mm; with P. granulosum PRP-043, 10.77 mm. Moreover, the DDA in the assay on P. acnes PRP-026 is listed as 11.29 mm; in the assay on P. acnes PRP-017 it was 9.93 mm; in the assay with P. granulosum PRP-021, 8.57 mm; in the assay with P. granulosum PRP-019, 0.00 mm; in the assay on P. acnes PRP-008, 13.90 mm; with P. granulosum PRP-055, 10.04 mm. Moreover, the DDA is listed as 13.80 mm in the assay on P. acnes PRP-004; 14.22 mm in the assay on P. acnes PRP-046; 10.45 mm in the assay with P. granulosum NCTC 11865; 18.61 mm with P. acnes PRP-003; 10.56 mm in the assay with P. acnes PRP-002; 12.55 mm in the assay with P. acnes PRP-068. Moreover, the DDA in the assay on P. acnes PRP-053 worked out at 9.93 mm; in the assay on P. acnes PRP-102, 9.10 mm; in the assay on P. acnes PRP-007 it was 8.78 mm; in the assay on P. acnes PRP-010, 8.68 mm; with P. granulosum PRP-044 it was 0.00 mm; with P. acnes PRP-059, 10.87 mm. In the assay with P. acnes NCTC 737 [4] (salt and lipid (1% (v/v) Tween 80) supplements), the “SL (S)DDA” value stood at 0.0 mm. Further, the “(S)DDA” value in the assay on P. acnes NCTC 737 [4] (setting [10]) is 12.20 (±1.13) mm; with S. aureus ATCC 29213 [6] (setting [10]) it was 40.42 (±0.89) mm. Moreover, the MIC with P. acnes NCTC 737 [5] (Cutibacterium acnes, NCTC737, liquid medium, duplicate, read-out: MIC) came out at 7.8 µg/mL (≈ 46.9 µM). Besides, the MIC/MBC ratio with P. acnes NCTC 737 [5] came out at 1; in the assay with S. aureus ATCC 29213 [7] it was 0.5. Moreover, in the assay on S. aureus ATCC 29213 [6] (salt and serum supplements), the “SS (S)DDA” value is reported as 43.68 (±1.02) mm. For the same compound, the minimal bactericidal concentration (MBC) in the assay on S. aureus ATCC 29213 [8] and in the assay with P. acnes NCTC 737 [9] was 7.8 µg/mL (≈ 46.9 µM) throughout.
